Measured values as given in the supplement of paper PMC8967900.

Key:
Assay in all cases: selective drug sensitivity score (sDSS, relative to normal bone marrow) (sDSS (score)); higher = more potent and effective on the cell line relative to normal bone marrow cells
Settings in all cases: 72 h
[1] = tested on: HPB-ALL
[2] = tested on: COG-LL-394h
[3] = tested on: RCH-ACV
[4] = tested on: NALM-16
[5] = tested on: SEM cells
[6] = tested on: KOPN-8
[7] = tested on: MHH-CALL-4
[8] = tested on: COG-LL-402h
[9] = tested on: KARPAS-45
[10] = tested on: REH
[11] = tested on: KASUMI-10
[12] = tested on: MOLT-14
[13] = tested on: MHH-CALL-3
[14] = tested on: P30-OHKUBO
[15] = tested on: TMD5
[16] = tested on: MHH-CALL-2
[17] = tested on: TANOUE
[18] = tested on: 380
[19] = tested on: NALL-1
[20] = tested on: MN-60
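Also: ALL cell lines in 384-well plates, five doses spanning 10,000-fold, each plate scaled between vehicle and 100 µmol/L benzalkonium chloride controls, sDSS an adapted area-under-curve metric.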

Compound | selective drug sensitivity score [1] | selective drug sensitivity score [2] | selective drug sensitivity score [3] | selective drug sensitivity score [4] | selective drug sensitivity score [5] | selective drug sensitivity score [6] | selective drug sensitivity score [7] | selective drug sensitivity score [8] | selective drug sensitivity score [9] | selective drug sensitivity score [10] | selective drug sensitivity score [11] | selective drug sensitivity score [12] | selective drug sensitivity score [13] | selective drug sensitivity score [14] | selective drug sensitivity score [15] | selective drug sensitivity score [16] | selective drug sensitivity score [17] | selective drug sensitivity score [18] | selective drug sensitivity score [19] | selective drug sensitivity score [20]
CCN(CC)CCOc1ccc(/C(=C(/Cl)c2ccccc2)c2ccccc2)cc1 [Clomifene] (top concentration 10000 nM) | -0.78 | -0.08 | 3.22 | -2.88 | 2.32 | 8.92 | 2.72 | -0.88 | 1.22 | 0.72 | -1.78 | -0.28 | 6.52 | 3.22 | 1.32 | 4.12 | -2.98 | 1.42 | 1.22 | -0.18
CCNCCS(=O)(=O)NC[C@@]1(c2ccccc2)SC(NC(=O)C(C)(C)C)=NN1C(=O)C(C)(C)C [Litronesib] (top concentration 1000 nM) | 19.7 | 7.74 | 22.1 | 14.3 | 20.5 | 20.6 | 8.54 | 18 | 21.9 | 22.3 | 14.7 | 20.7 | 7.44 | 19.6 | 9.64 | 15.6 | -7.36 | 19 | 10.9 | 4.64
NS(=O)(=O)NCCNc1nonc1/C(=N/O)Nc1ccc(F)c(Br)c1 [Epacadostat] (top concentration 10000 nM) | -0.16 | -0.26 | -0.26 | -0.26 | 8.34 | 2.44 | 4.24 | -0.26 | -0.26 | 3.34 | -0.06 | -0.26 | -0.26 | -0.06 | 4.44 | 1.64 | -0.26 | -0.26 | 3.74 | 1.44
COCC1(CO)C(=O)C2CCN1CC2 (stereo not given) [APR-246] (top concentration 10000 nM) | 2.14 | -1.16 | -1.16 | 2.44 | -1.16 | 0.54 | 0.64 | -1.16 | -1.16 | -1.16 | -1.16 | -1.16 | 0.14 | -0.76 | -1.16 | 6.84 | 4.54 | 4.54 | -1.16 | -1.16
COc1cc2nccc(Oc3ccc(NC(=O)C4(C(=O)Nc5ccc(F)cc5)CC4)cc3)c2cc1OC [Cabozantinib] (top concentration 1000 nM) | -3.02 | 0.18 | -3.62 | 2.68 | 17.6 | 24.9 | 3.78 | -3.62 | -2.42 | 4.58 | 14.1 | 1.28 | -3.62 | -3.62 | -3.62 | -3.62 | -3.62 | -3.62 | -3.62 | -3.62
CN1CCN(CCOc2cc(OC3CCOCC3)c3c(Nc4c(Cl)ccc5c4OCO5)ncnc3c2)CC1 [Saracatinib] (top concentration 10000 nM) | -1.02 | -2.02 | 7.28 | -2.02 | 0.08 | 2.38 | -2.02 | 8.68 | 5.68 | -2.02 | 1.48 | 7.98 | 0.08 | 5.58 | 0.58 | -0.52 | -2.02 | -2.02 | -2.02 | 3.38
Cc1cc(Nc2cc(N3CCN(C)CC3)nc(Sc3ccc(NC(=O)C4CC4)cc3)n2)n[nH]1 [Tozasertib] (top concentration 10000 nM) | 7.46 | 3.36 | 17.9 | -0.34 | 22.3 | 19.1 | 4.66 | 15.4 | 8.56 | 21.2 | 15.6 | 20.9 | 9.66 | 22.2 | 14.8 | 11 | -6.64 | 19.2 | 19.8 | -0.74
Cn1cc(C2=C(c3cn(C4CCN(Cc5ccccn5)CC4)c4ccccc34)C(=O)NC2=O)c2ccccc21 [Enzastaurin] (top concentration 10000 nM) | -0.24 | 6.86 | 2.36 | 5.56 | 6.76 | 2.46 | -0.04 | 5.16 | 4.86 | 3.66 | 4.56 | 6.06 | 3.86 | 3.46 | 0.06 | 0.66 | 2.46 | 3.96 | -0.34 | 5.16
C[C@@H]1CN(Cc2ccc(F)cc2)[C@@H](C)CN1C(=O)c1cc2c(C(=O)C(=O)N(C)C)cn(C)c2cc1Cl [Talmapimod] (top concentration 10000 nM) | 0 | 0.7 | 4.9 | 0 | 0.4 | 0 | 0 | 0 | 0 | 2.8 | 0 | 0 | 0 | 0.2 | 0 | 0 | 0 | 0 | 0 | 0
C[C@H]1C[C@@H]2[C@H]([C@@H](O)C[C@@]3(C)[C@H]2CC[C@]3(O)C(=O)CO)[C@@]2(C)C=CC(=O)C=C12 [Methylprednisolone] (top concentration 10000 nM) | 5 | -2.3 | 30.2 | -2.3 | 7.9 | 21.1 | 31.6 | 18.5 | 16.4 | -2.3 | -2.3 | -2.3 | 33.2 | 18.6 | 15 | 26.5 | -2.3 | 27.2 | 24.8 | -1.5
CN(C)CCCOc1ccc(-c2ccc3ncc4c(c3c2)n(C2CCOCC2)c(=O)n4C)cn1 [AZD0156] (top concentration 1000 nM) | 0.24 | -0.06 | 7.24 | -0.06 | 1.14 | 2.04 | 1.54 | 3.34 | 0.14 | 0.84 | -0.06 | 0.14 | -0.06 | 2.04 | -0.06 | 1.84 | -0.06 | 2.24 | 2.54 | -0.06
Cc1sc2c(c1C)C(c1ccc(Cl)cc1)=N[C@@H](CC(=O)Nc1ccc(OCCOCCOCCOCCNc3cccc4c3C(=O)N(C3CCC(=O)NC3=O)C4=O)cc1)c1nnc(C)n1-2 (stereo not given in full) [ARV-825] (top concentration 300 nM) | -10.9 | -0.96 | 4.44 | 0.74 | 2.24 | 4.14 | 7.54 | 3.74 | -8.06 | -0.26 | 3.84 | -0.86 | 7.44 | 3.74 | 0.14 | 4.94 | -17.1 | 2.04 | -12.1 | -1.56
c1cc(CN2CCCNCCNCCCNCC2)ccc1CN1CCCNCCNCCCNCC1 [Plerixafor] (top concentration 10000 nM) | 0 | 0 | 0 | 0 | 0 | 0 | 0 | 0 | 0 | 0.1 | 0 | 0 | 0 | 0 | 0 | 0 | 0 | 0 | 0 | 0
CC(C)(C)NC(=O)[C@H]1CC[C@H]2[C@@H]3CC[C@H]4NC(=O)C=C[C@]4(C)[C@H]3CC[C@]12C [Finasteride] (top concentration 10000 nM) | 0.28 | -0.52 | -0.52 | -0.52 | 1.48 | 8.18 | 1.88 | -0.52 | -0.52 | -0.52 | -0.42 | -0.52 | -0.52 | -0.52 | 0.58 | 0.98 | -0.52 | -0.52 | 3.48 | -0.52
CC1=C(/C=C/C(C)=C/C=C/C(C)=C/C(=O)O)C(C)(C)CCC1 [Tretinoin] (top concentration 10000 nM) | -1.7 | -2.4 | -2.4 | -2.4 | 0 | 0.4 | -2.4 | -2.4 | -1.8 | -1.8 | -1.8 | -2.4 | -1.2 | -2.4 | -2.4 | -1.7 | -2.4 | 1.7 | -2.4 | -2.4
Cn1cc(-c2cnn3c(N)c(Br)c([C@@H]4CCCNC4)nc23)cn1 [MK-8776] (top concentration 2500 nM) | -1.46 | -0.96 | 3.94 | 1.14 | 2.64 | -0.46 | -0.46 | 2.64 | 0.34 | 0.24 | 2.24 | -1.26 | 0.04 | -1.16 | -1.46 | 2.54 | -1.46 | 3.64 | -1.46 | -1.46
CC[C@]1(O)C[C@H]2CN(CCc3c([nH]c4ccccc34)[C@@](C(=O)OC)(c3cc4c(cc3OC)N(C=O)[C@H]3[C@@](O)(C(=O)OC)[C@H](OC(C)=O)[C@]5(CC)C=CCN6CC[C@]43[C@@H]65)C2)C1 [Vincristine] (top concentration 1000 nM) | 14.1 | 3.92 | 17.2 | 12.3 | 12.7 | 15.8 | -2.28 | 13.7 | 5.92 | 17.5 | 4.72 | 7.72 | 4.22 | 17.4 | -0.08 | 5.52 | -11.1 | 14.9 | -0.88 | -1.58
CN(C)CC#Cc1ccc(OCCCc2sc(N3CCc4cccc(C(=O)Nc5nc6ccccc6s5)c4C3)nc2C(=O)O)c(F)c1 (top concentration 10000 nM) | 24.9 | 17 | -1.54 | -1.24 | -0.24 | 3.46 | 9.16 | 26.4 | 38.5 | -1.84 | 11 | 12.3 | 19 | -1.44 | -3.64 | 1.66 | -3.34 | 15.7 | 3.46 | -3.64
